Values quoted from earlier work as cited in patent US20210401766A1, “Method of Using Cannabinoids Encapsulated in Phospholipid Carriers for Transmucosal and Transdermal Administration” (NuVessl, Inc., priority 2018, published 2021).

## C=C(C)[C@@H]1CCC(C)=C[C@H]1c1c(O)cc(CCCCC)cc1O [CBD, Cannabidiol]
Oral administration
  Duration of effects: 5 to 8 h
oromucosal
  Bioavailability: approximately 35%
Smoking and vaporizing
  Bioavailability (average): around 40%
  Bioavailability (range): 2%-56%
  Length of time CBD remains in the body: around 3 hours
